Data published in patent publication US5565483A, “3-substituted oxindole derivatives as potassium channel modulators” (Bristol-Myers Squibb Company, priority 1995, dated 1996).

tested on: cloned mammalian (mSIo or hSIo) BK channels; assay: Increase of cloned BK-mediated outward current in Xenopus oocytes, two-electrode voltage clamp; type: cell-based; details: at 20 μM; at least 5 oocytes; mSIo or hSIo expressed in Xenopus oocytes
Method: The ability of compounds described in the present invention to open BK channels and increase whole-cell outward (K^+) BK-mediated currents was assessed under voltage-clamp conditions by determining their ability to increase cloned mammalian (mSIo or hSIo) BK--mediated outward current heterologously expressed in Xenopus oocytes [Butler, A., et al., Science, 261:221-224 (1993); and Dworetzky, S. I., etal., Mol. Brain Res., 27: 189-193 (1994)]. The two BK constructs employed represent nearly structurally identical homologous proteins, and have proven to be pharmacologically identical in our tests. To isolate BK current from native (background, non-BK) current, the specific and potent BK channel-blocking toxin iberiotoxin (IBTX) [Galvez, A., et al., J. Biol. Chem. 265:11083-11090 (1990)] was employed at a supramaximal concentration (50 nM). The relative contribution of BK channels current to total outward current was determined by subtraction of the current remaining in the presence of IBTX (non-BK current) from the current profiles obtained in all other experimental conditions (control, drug, and wash). […] All compounds were tested in at least 5 oocytes and are reported at the single concentration of 20 uM; the effect of the selected compounds of Formula I on BK current was expressed as the percent of control IBTX-sensitive current and is listed in Table I. Recordings were accomplished using standard two-electrode voltage clamp techniques [Stuhmer, W., et al., Methods in Enzymology, Vol. 207:319-339 (1992)]; voltage-clamp protocols consisted of 500-750 ms duration step depolarizations from a holding potential of -60 mV to +140 mV in 20 mV steps. The experimental media (modified Barth's solution) consisted of (in mM): NaCl (88), NaHCO3 (2.4), KCl (1.0), HEPES (10), MgSO4 (0.82), Ca(NO3)2 (0.33), CaCl2 (0.41); pH 7.5.

Compound	BK Current, percent of control IBTX-sensitive current
O=C1Nc2cc(Cl)cc(Cl)c2C1c1cc(Cl)ccc1O (racemic) [Example 31, (±)-3-(5-Chloro-2-hydroxyphenyl)-4,6-dichloro-1,3-dihydro-2H-indol-2-one]	+ (+ = 100-125%)
O=C1Nc2cc(Cl)cc(Cl)c2C1(O)c1cc(Cl)ccc1O (racemic) [Example 6, (±)-3-(5-Chloro-2-dhydroxyphenyl)-4,6-dichloro-1,3-dihydro-3-hydroxy-2-H-indol-2-one]	+ (+ = 100-125%)
O=C1Nc2c(ccc3ccccc23)C1(O)c1cc(Cl)ccc1O (racemic) [Example 15, (±)-3-(5-Chloro-2-hydroxyphenyl)-1,3-dihydro-3-hydroxy-2H-benz[g]indol-2-one]	+++ (+++ = >150%)
O=C1Nc2c(C(F)(F)F)cccc2C1(O)c1cc(Cl)ccc1O (racemic) [Example 7, (±)-3-(5-Chloro-2-hydroxyphenyl)-1,3-dihydro-3-hydroxy-7-(trifluoromethyl)-2H-indol-2-one]	+ (+ = 100-125%)
O=C1Nc2cc(I)ccc2C1c1cc(Cl)ccc1O (racemic) [Example 33, (±)-3-(5-Chloro-2-hydroxyphenyl)-1,3-dihydro-6-iodo-2H-indol-2-one]	+++ (+++ = >150%)
COc1ccc(Cl)cc1C1(F)C(=O)Nc2cc(C(F)(F)F)ccc21 (racemic) [Example 14, (±)-3-(5-Chloro-2-methoxyphenyl)-1,3-dihydro-3-fluoro-6-(trifluoromethyl)-2H-indol-2-one]	++ (++ = 125-150%)
COc1ccc(Cl)cc1C1(O)C(=O)Nc2cc(C(F)(F)F)ccc21 (racemic) [Example 1, (±)-3-(5-Chloro-2-methoxyphenyl)-1,3-dihydro-3-hydroxy-6-(trifluoromethyl)-2H-indol-2-one]	+ (+ = 100-125%)
O=C1Nc2cc(C(F)(F)F)ccc2C1(O)c1cc(Cl)ccc1O (single isomer, unassigned; (-)) [Example 13, (-)-3-(5-Chloro-2-hydroxyphenyl)-1,3-dihydro-3-hydroxy-6-(trifluoromethyl)-2H-indol-2-one]	++ (++ = 125-150%)
O=C1Nc2cc(-c3ccccc3)ccc2C1c1cc(Cl)ccc1O (racemic) [Example 16, (±)-3-(5-Chloro-2-hydroxyphenyl)-1,3-dihydro-6-phenyl-2H-indol-2-one]	+++ (+++ = >150%)
O=C1Nc2cc(C(F)(F)F)ccc2C1(O)c1cc(C(F)(F)F)ccc1O (racemic) [Example 9, (±)-1,3-Dihydro-3-hydroxy-3-[2-hydroxy-5-(trifluoromethyl)phenyl]-6-(trifluoromethyl)-2H-indol-2-one]	++ (++ = 125-150%)
COc1ccc(Cl)cc1C1(F)C(=O)Nc2ccc(F)cc21 (racemic) [Example 25, (±)-3-(5-Chloro-2-methoxyphenyl)-1,3-dihydro-3,5-difluoro-2H-indol-2-one]	+ (+ = 100-125%)
O=C1Nc2ccc3ccccc3c2C1c1cc(Cl)ccc1O (racemic) [Example 22, (±)-3-(5--Chloro-2-hydroxyphenyl)-1,3-dihydro-2H-benz[e]indol-2-one]	+++ (+++ = >150%)
O=C1Nc2cc(C(F)(F)F)ccc2C1(O)c1cc(Cl)ccc1O (racemic) [Example 3, (±)-3-(5-Chloro-2-hydroxyphenyl)-1,3-dihydro-3-hydroxy-6-(trifluoromethyl)-2H-indol-2-one]	++ (++ = 125-150%)
O=C1Nc2cc(C(F)(F)F)ccc2C1c1cc(Cl)ccc1O (racemic) [Example 4, (±)-3-(5-Chloro-2-hydroxyphenyl)-1,3-dihydro-6-(trifluoromethyl)-2H-indol-2-one]	+++ (+++ = >150%)

tested on: cortical infarct volume after MCAO; assay: Permanent middle cerebral artery occlusion (MCAO) focal stroke model; type: in vivo, spontaneously hypertensive rat; details: intraparitoneally 10 mg/kg, single bolus 2 hours after MCAO; infarct measured 24 hours after MCAO; vs vehicle-treated control
Source text: To determine the ability of these compounds to reduce cell loss resulting from neuronal ischemia, a standard rodent model of permanent focal ischemia, involving occlusion of the middle cerebral artery in the spontaneously hypertensive rat (MCAO model) was employed [Tamura, A., et al., Journal of Cerebral Blood Flow and Metabolism, Volume 1, 53-60, (1981)].
Selected compounds have been evaluated in the focal stroke model involving permanent middle cerebral artery occlusion (MCAO) in the spontaneously hypertensive rat. This procedure results in a reliably large neocortical infarct volume that is measured by means of vital dye exclusion in serial slices through the brain 24 hours after MCAO. In the present test, compounds were administered using an i.v. or […]. route of administration at two hours after occlusion.

Compound	reduction of cortical infarct volume
O=C1Nc2cc(C(F)(F)F)ccc2C1c1cc(Cl)ccc1O (racemic) [Example 4, (±)-3-(5-Chloro-2-hydroxyphenyl)-1,3-dihydro-6-(trifluoromethyl)-2H-indol-2-one]	about 26%

same assay, conditions: intravenously 0.03 mg/kg, single bolus 2 hours after MCAO; infarct measured 24 hours after MCAO; vs vehicle-treated control

Compound	reduction of cortical infarct volume
O=C1Nc2cc(C(F)(F)F)ccc2C1c1cc(Cl)ccc1O (racemic) [Example 4, (±)-3-(5-Chloro-2-hydroxyphenyl)-1,3-dihydro-6-(trifluoromethyl)-2H-indol-2-one]	about 18%
